{
  "source": "patent US11040035B2",
  "about": "“3-oxo-2,6-diphenyl-2,3-dihydropyridazine-4-carboxamides” (BAYER PHARMA AKTIENGESELLSCHAFT, priority 2016, dated 2021)",
  "key": {"AHR [1]": {"target": "T1, AHR (Homo sapiens, UniProt P35869)", "T1 sequence (P35869 11-848)": "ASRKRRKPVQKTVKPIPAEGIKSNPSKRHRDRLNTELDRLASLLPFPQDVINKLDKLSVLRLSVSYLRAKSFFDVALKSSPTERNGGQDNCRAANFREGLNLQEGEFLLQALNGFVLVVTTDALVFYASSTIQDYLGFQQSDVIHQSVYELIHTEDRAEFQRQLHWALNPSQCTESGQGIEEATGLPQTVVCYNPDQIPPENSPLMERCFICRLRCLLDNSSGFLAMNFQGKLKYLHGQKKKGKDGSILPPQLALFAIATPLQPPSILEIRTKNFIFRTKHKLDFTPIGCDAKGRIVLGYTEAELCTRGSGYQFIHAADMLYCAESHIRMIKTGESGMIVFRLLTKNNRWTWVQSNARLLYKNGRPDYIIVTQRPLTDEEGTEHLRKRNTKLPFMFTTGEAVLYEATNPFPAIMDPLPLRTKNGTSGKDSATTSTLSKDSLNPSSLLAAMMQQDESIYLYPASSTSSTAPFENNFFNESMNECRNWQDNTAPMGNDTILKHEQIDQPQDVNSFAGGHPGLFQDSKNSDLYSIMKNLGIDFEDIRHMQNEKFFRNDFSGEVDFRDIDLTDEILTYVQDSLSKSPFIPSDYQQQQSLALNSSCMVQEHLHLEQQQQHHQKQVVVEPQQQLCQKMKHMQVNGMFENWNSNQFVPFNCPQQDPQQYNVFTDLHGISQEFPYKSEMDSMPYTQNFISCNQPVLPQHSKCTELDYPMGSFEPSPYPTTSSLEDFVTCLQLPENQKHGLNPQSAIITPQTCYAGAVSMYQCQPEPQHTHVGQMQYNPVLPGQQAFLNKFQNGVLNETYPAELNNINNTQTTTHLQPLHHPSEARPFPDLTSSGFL", "experiment": "In vitro assay 2: agonism in human cell line (transactivation assay)", "settings": "Assay 2: AHR-luc Hum Agonism IC50 [M], no kynurenic acid, 20 hours, firefly luciferase"}, "[2]": {"system": "AHR-regulated gene CYP1A1", "experiment": "In vitro assay 3: AHR-regulated CYP1A1 expression in human cell line (U937, qPCR)", "settings": "Homo sapiens, U-937, 6 h, read-out: Assay 3: Hum CYP1A1 Antagonism IC50 [M], U937 cells, 200 μM KA, 6 hours, qPCR", "experimental": "In Vitro Assay 3: AHR-Regulated CYP1A1 Expression in Human Cell Line\nTo assess the AHR inhibitory activity of the substances described in this application, the ability thereof to antagonise ligand-induced AHR gene regulation in a dose-dependent manner was quantified. For this purpose, quantitative PCR analysis was used to determine expression of the AHR-regulated gene CYP1A1 in a human monocytic U937 cell line upon stimulation with 200 μM KA in the presence and absence of AHR inhibitor. U937 cells were sown at a concentration of 2×10^5 cells/well in 100 ul of growth medium (RPMI 1640, 20% FCS) in 96-well microtitre plates. CYP1A1 expression was induced with 200 μM KA (positive control) in the presence or absence of the substances for 6 hours. Human U937 cells were typically incubated with eight different concentrations of the substances (1 nM, 3 nM, 10 nM, 30 nM, 100 nM, 300 nM, 1 μM and 3 μM) and analyzed in duplicate on the same microtitre plate. After stimulation, cells were lysed with Nucleic Acid Lysis Solution (#4305895, Applied Biosystems) and RNA was isolated using the 6100 Nucleic Acid Preparation Station (Applied Biosystems) and reverse-transcribed to cDNA using SuperScript VILO cDNA synthesis kit (#11754-250, Invitrogen). Unstimulated cells were used as the negative control. Taqman probes for human CYP1A1 (Hs01054797_g1) and human HPRT (Hs02800695_m1) were used to analyze fold expression of CYP1A1 of HPRT. Quantitation was performed on a Taqman SDS7900HT."}, "AHR [3]": {"target": "T1, AHR", "experiment": "In vitro assay 1: antagonism in human cell line (transactivation assay, kynurenic acid prestimulated)", "settings": "Assay 1: AHR-luc Hum Antagonism IC50 [M], 150 μM kynurenic acid, 20 hours, firefly luciferase"}},
  "data": [
    {"smiles": "CC(O)C(NC(=O)c1cc(-c2ccc(Cl)cc2)nn(-c2cccc(F)c2)c1=O)C(F)(F)F", "note": "(mixture of isomers) [Example 197, 6-(4-Chlorophenyl)-2-(3-fluorophenyl)-3-oxo-N-[(2RS, 3RS)-1,1,1-trifluoro-3-hydroxybutan-2-yl]-2,3-dihydropyridazine-4-carboxamide and 6-(4-Chlorophenyl)-2-(3-fluorophenyl)-3-oxo-N-[(2RS, 3SR)-1,1,1-trifluoro-3-hydroxybutan-2-yl]-2,3-dihydropyridazine-4-carboxamide]", "values": [
      {"measurement": "IC50", "setting": "AHR [1]", "value": "> 2e-05", "unit": "M"},
      {"measurement": "IC50", "setting": "[2]", "value": "1.82e-08", "unit": "M"},
      {"measurement": "IC50", "setting": "AHR [3]", "value": "1.97e-08", "unit": "M"}
    ]},
    {"smiles": "O=C(NC(CO)C1CCC1)c1cc(-c2ccc(Cl)cc2)nn(-c2cccc(F)c2)c1=O", "note": "(racemic) [Example 209, 6-(4-Chlorophenyl)-N-[(1RS)-1-cyclobutyl-2-hydroxyethyl]-2-(3-fluorophenyl)-3-oxo-2,3-dihydropyridazine-4-carboxamide]", "values": [
      {"measurement": "IC50", "setting": "AHR [1]", "value": "> 2e-05", "unit": "M"},
      {"measurement": "IC50", "setting": "[2]", "value": "3.21e-08", "unit": "M"},
      {"measurement": "IC50", "setting": "AHR [3]", "value": "3.27e-08", "unit": "M"}
    ]},
    {"smiles": "CC(CO)CNC(=O)c1cc(-c2ccc(C(F)(F)F)cc2)nn(-c2cccc(F)c2)c1=O", "note": "(racemic) [Example 245, 2-(3-Fluorophenyl)-N-[(2RS)-3-hydroxy-2-methylpropyl]-3-oxo-6-[4-(trifluoromethyl)phenyl]-2,3-dihydropyridazine-4-carboxamide]", "values": [
      {"measurement": "IC50", "setting": "AHR [1]", "value": "> 2e-05", "unit": "M"},
      {"measurement": "IC50", "setting": "[2]", "value": "5.44e-08", "unit": "M"},
      {"measurement": "IC50", "setting": "AHR [3]", "value": "3.72e-08", "unit": "M"}
    ]},
    {"smiles": "CC(O)CCNC(=O)c1cc(-c2ccc(C(F)(F)F)cc2)nn(-c2cccc(F)c2)c1=O", "note": "(racemic) [Example 247, 2-(3-Fluorophenyl)-N-[(3RS)-3-hydroxybutyl]-3-oxo-6-[4-(trifluoromethyl)phenyl]-2,3-dihydropyridazine-4-carboxamide]", "values": [
      {"measurement": "IC50", "setting": "AHR [1]", "value": "> 2e-05", "unit": "M"},
      {"measurement": "IC50", "setting": "[2]", "value": "1.71e-07", "unit": "M"},
      {"measurement": "IC50", "setting": "AHR [3]", "value": "8.35e-08", "unit": "M"}
    ]},
    {"smiles": "CC(CCO)NC(=O)c1cc(-c2ccc(C(F)(F)F)cc2)nn(-c2cccc(F)c2)c1=O", "note": "(racemic) [Example 253, 2-(3-Fluorophenyl)-N-[(2RS)-4-hydroxybutan-2-yl]-3-oxo-6-[4-(trifluoromethyl)phenyl]-2,3-dihydropyridazine-4-carboxamide]", "values": [
      {"measurement": "IC50", "setting": "AHR [1]", "value": "> 2e-05", "unit": "M"},
      {"measurement": "IC50", "setting": "[2]", "value": "3.62e-08", "unit": "M"},
      {"measurement": "IC50", "setting": "AHR [3]", "value": "2.89e-08", "unit": "M"}
    ]},
    {"smiles": "O=C(NC(CO)CCO)c1cc(-c2ccc(C(F)(F)F)cc2)nn(-c2cccc(F)c2)c1=O", "note": "(racemic) [Example 262, N-[(2RS)-1,4-Dihydroxybutan-2-yl]-2-(3-fluorophenyl)-3-oxo-6-[4-(trifluoromethyl)phenyl]-2,3-dihydropyridazine-4-carboxamide]", "values": [
      {"measurement": "IC50", "setting": "AHR [1]", "value": "> 2e-05", "unit": "M"},
      {"measurement": "IC50", "setting": "[2]", "value": "9.15e-08", "unit": "M"},
      {"measurement": "IC50", "setting": "AHR [3]", "value": "5.51e-08", "unit": "M"}
    ]},
    {"smiles": "O=C(NC(CO)C1CCCO1)c1cc(-c2ccc(C(F)(F)F)cc2)nn(-c2cccc(F)c2)c1=O", "note": "(racemic) [Example 263, 3,6-Anhydro-2,4,5-trideoxy-2-[({2-(3-fluorophenyl)-3-oxo-6-[4-(trifluoromethyl)phenyl]-2,3-dihydropyridazin-4-yl}carbonyl)amino]-DL-erythro-hexitol and 1,4-anhydro-2,3,5-trideoxy-5-[({2-(3-fluorophenyl)-3-oxo-6-[4-(trifluoromethyl)phenyl]-2,3-dihydropyridazin-4-yl}carbonyl)amino]-DL-threo-hexitol]", "values": [
      {"measurement": "IC50", "setting": "AHR [1]", "value": "> 2e-05", "unit": "M"},
      {"measurement": "IC50", "setting": "[2]", "value": "6.06e-08", "unit": "M"},
      {"measurement": "IC50", "setting": "AHR [3]", "value": "3.54e-08", "unit": "M"}
    ]},
    {"smiles": "O=C(NC(CO)C1CC1)c1cc(-c2ccc(C(F)(F)F)cc2)nn(-c2cccc(F)c2)c1=O", "note": "(racemic) [Example 267, N-[(1RS)-1-Cyclopropyl-2-hydroxyethyl]-2-(3-fluorophenyl)-3-oxo-6-[4-(trifluoromethyl)phenyl]-2,3-dihydropyridazine-4-carboxamide]", "values": [
      {"measurement": "IC50", "setting": "AHR [1]", "value": "> 2e-05", "unit": "M"},
      {"measurement": "IC50", "setting": "[2]", "value": "1.05e-08", "unit": "M"},
      {"measurement": "IC50", "setting": "AHR [3]", "value": "2.9e-08", "unit": "M"}
    ]},
    {"smiles": "O=C(NC(CO)CF)c1cc(-c2ccc(Cl)cc2)nn(-c2cccc(F)c2)c1=O", "note": "(racemic) [Example 323, 6-(4-chlorophenyl)-N-[(2RS)-1-fluoro-3-hydroxypropan-2-yl]-2-(3-fluorophenyl)-3-oxo-2,3-dihydropyridazine-4-carboxamide]", "values": [
      {"measurement": "IC50", "setting": "AHR [1]", "value": "> 2e-05", "unit": "M"},
      {"measurement": "IC50", "setting": "[2]", "value": "3.2e-08", "unit": "M"},
      {"measurement": "IC50", "setting": "AHR [3]", "value": "2.43e-08", "unit": "M"}
    ]}
  ]
}
